From patent US20110178154A1, “GENE EXPRESSION PROFILE THAT PREDICTS OVARIAN CANCER SUBJECT RESPONSE TO CHEMOTHERAPY” (priority 2007, published 2011)
d = 2'-deoxy (DNA); r = 2'-OH (RNA)

How the values were obtained:
[1] = system: A2780CP20 ovarian cancer cell line; experiment: MTS proliferation assay: cisplatin sensitivity after siRNA pretreatment; format: cell-based; conditions: for fold change in cisplatin sensitivity: A2780CP20 cells, compared to siNEG
Protocol: Cell culture and RNA interference. Ovarian cancer cell lines were routinely maintained in medium supplemented with 10% fetal bovine serum and 2 mM L-glutamine. SKOV3 and OVCAR3 cell lines were maintained in RPMI-1640 medium, OVCA420 and OVCA432 were maintained in 105/199 medium and OVCA420 and CAOV3 cells were maintained in DMEM medium. For 3-(4,5-dimethylthiazol-2-yl)-5-(3-carboxymethoxyphenyl)-2-(4-sulfophenyl)-2H-tetrazolium (MTS) assays, transfections mediated by cationic lipid were performed in 96-well plates. Cells were seeded on a complex of the appropriate siRNA (QIAGEN® Inc., Germantown, Md.) and Oligofectamine (Invitrogen, Carlsbad, Calif.) in unsupplemented growth medium. Final amounts in each well were 50 nM siRNA, 0.5 ul Oligofectamine, and 3000 cells in 100 μL medium. The siRNA target sequences of the synthetic siRNAs were designed against the reference RNA sequence.
MTS proliferation assay. Cell line sensitivity to chemotherapeutic reagents such as cisplatin or taxol was determined by measuring formazan production from MTS (PROMEGA®, Madison, Wis.), with drug concentrations tested in octuplicates in each experiment. For example, serial dilutions of cisplatin or taxol were made shortly before addition to cells. At 48 hours after transfection and seeding, cells were washed by aspiration of the supernatant, and 150 uL of drug-containing medium is added. Another 48 hours later, the drug solution was aspirated and 120 uL MTS-containing medium is added according to the manufacturer's protocol (PROMEGA® #G3580, Madison, Wis.). The plates were incubated at 37° C. and read at 490 nm after 3 hours. Using GraphPad PRISM® 4.02 (GraphPad Software Inc., San Diego, Calif.), the drug concentrations were log-transformed and nonlinear regression is performed on the A490 data using the sigmoidal dose response model with variable slope. Mean EC50 values, standard errors, and 95% confidence intervals were determined from the logistic fits.
(§1) As described above in Example 1, A2780CP20 ovarian cancer cell lines were transfected with siPOLH-2 or siPOLH-5, treated with cisplatin starting 48 hours later, and assayed with MTS 48 hours thereafter. Viable cell number data was acquired by reading the fluorescence emissions at 490 nm. Using GraphPad Prism 4.02, cisplatin drug concentrations were log-transformed and nonlinear regression performed on the A490 data using the sigmoidal dose response model with variable slope to generate the IC50 curves. IC50 values and 95% confidence intervals were determined from the logistic fits.
as §1, with “A2780CP20” for “As described above in Example 1, A2780CP20”, “siREV3L-1” for “siPOLH-2”, “siREV3L-2,” for “siPOLH-5,”, “thereafter (as described above, including Example 1).” for “thereafter.”, “fits. […] Further, a 2.1 fold change in cisplatin sensitivity was detected for siREV3L-1 pretreatment and a 2.9 fold change in such sensitivity for siREV3L-2 pretreatment.” for “fits.”
as §1, with “FIG. 5 illustrates the effect of pretreatment with RNAi against POLH and REV3L on cisplatin resistance.” for “As described above in Example 1,”, “cotransfected” for “transfected”, “siPOLH-5 and siREV3L-2,” for “siPOLH-2 or siPOLH-5,”

POLH = experiment: Western blot analysis for POLH after POLH siRNA treatment; format: cell-based; conditions: lysates at 24, 48, 72 and 96 hours; 5 ul of 1 ug/ul POLH-siRNA
Protocol: Cell lysates were collected and examined by Western blot analysis for POLH. After treating cells with 5 ul of 1 ug/ul POLH-siRNA, lysates were collected at 24, 48, 72 and 96 hours and then analyzed for down-regulation of POLH.

Row | Substance | cell sensitivity to cisplatin when compared to cells treated with siNEG [1] | fold change in cisplatin sensitivity [1] | POLH expression (down-regulation of POLH) (POLH)
1 | siREV3L-1: synthetic siRNA against REV3L (exon 18), Qiagen cat #SI00045626, SEQ ID NO:2 sense and SEQ ID NO:3 antisense (sense GGAUGUAGUCAAACUGCAATT; antisense UUGCAGUUUGACUACAUCCAG; sugars from the 5' end r19 d2, backbone not given here) | significantly increased | 2.1 fold | 
2 | siREV3L-2: synthetic siRNA against REV3L (exon 17), Qiagen cat #SI00045633, SEQ ID NO:5 sense and SEQ ID NO:6 antisense (sense CACUGGAAUUAAUGCACAATT; antisense UUGUGCAUUAAUUCCAGUGTG; sugars from the 5' end r19 d2, backbone not given here) | significantly increased | 2.9 fold | 
3 | siPOLH-5: synthetic siRNA against POLH (exon 11), Qiagen cat #SI02663619, SEQ ID NO:11 sense and SEQ ID NO:12 antisense (sense GGUUGUGAGCAUUCGUGUATT; antisense UACACGAAUGCUCACAACCTG; sugars from the 5' end r19 d2, backbone not given here) | significantly increased | 1.9 fold | inhibit POLH RNA expression
4 | siPOLH-2: synthetic siRNA against POLH (exon 10), Qiagen cat #SI00089012, SEQ ID NO:8 sense and SEQ ID NO:9 antisense (sense CCAUUUAGGUGCUGAGUUATT; antisense UAACUCAGCACCUAAAUGGAG; sugars from the 5' end r19 d2, backbone not given here) | significantly increased | 1.6 fold | 
